As usually defined, the Ki is a dissociation constant, usually derived from enzyme kinetics or from competition with a known ligand.

Data on 27 molecules can be found in patent US9283222B2 (priority 2006, dated 2016).

In the assay the target is Recombinant Human Poly(ADP-Ribose) Polymerase (PARP), PARP-1 (Homo sapiens (Human), UniProt P09874). As to conditions: read-out: PARP-1 (Ki).
The mark [1] stands for this setting: Table 1, text calls the values EC50s.

Where two headings read alike, the source gives them in different places.

Chain of Recombinant Human Poly(ADP-Ribose) Polymerase (PARP), PARP-1 (P09874 whole entry): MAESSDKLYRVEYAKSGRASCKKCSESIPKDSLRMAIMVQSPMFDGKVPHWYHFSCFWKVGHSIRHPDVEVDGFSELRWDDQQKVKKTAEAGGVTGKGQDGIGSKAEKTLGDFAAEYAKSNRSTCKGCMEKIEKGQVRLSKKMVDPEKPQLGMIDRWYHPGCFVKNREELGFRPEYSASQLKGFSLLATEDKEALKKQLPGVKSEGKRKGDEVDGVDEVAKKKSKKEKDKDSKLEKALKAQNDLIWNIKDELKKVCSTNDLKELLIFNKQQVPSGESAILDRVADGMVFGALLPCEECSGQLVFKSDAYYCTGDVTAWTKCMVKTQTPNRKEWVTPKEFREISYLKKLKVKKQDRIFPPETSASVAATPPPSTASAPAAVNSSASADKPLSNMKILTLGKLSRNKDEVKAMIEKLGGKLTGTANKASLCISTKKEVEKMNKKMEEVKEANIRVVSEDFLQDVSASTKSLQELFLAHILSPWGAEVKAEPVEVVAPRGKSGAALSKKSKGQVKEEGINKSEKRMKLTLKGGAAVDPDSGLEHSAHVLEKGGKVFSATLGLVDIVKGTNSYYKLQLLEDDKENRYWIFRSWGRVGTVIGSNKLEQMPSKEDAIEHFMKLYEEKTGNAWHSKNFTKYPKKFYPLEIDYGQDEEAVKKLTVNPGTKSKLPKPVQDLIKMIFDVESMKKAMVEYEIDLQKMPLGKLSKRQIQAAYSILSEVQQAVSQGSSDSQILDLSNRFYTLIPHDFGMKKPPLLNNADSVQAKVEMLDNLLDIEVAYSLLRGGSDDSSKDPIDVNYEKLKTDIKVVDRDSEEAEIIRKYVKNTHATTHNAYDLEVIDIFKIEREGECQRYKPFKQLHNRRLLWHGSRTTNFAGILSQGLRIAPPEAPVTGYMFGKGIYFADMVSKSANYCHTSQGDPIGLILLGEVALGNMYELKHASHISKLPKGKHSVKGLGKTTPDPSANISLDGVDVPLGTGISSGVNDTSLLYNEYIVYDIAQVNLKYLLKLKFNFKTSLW
Procedure: Nicotinamide[2,5′,8-3H]adenine dinucleotide and strepavidin SPA beads were purchased from Amersham Biosiences. […] NAD^+, histone, aminobenzamide, 3-amino benzamide and Calf Thymus DNA (dcDNA) were purchased from Sigma. Stem loop oligonucleotide containing MCAT sequence was obtained from Qiagen. The oligos were dissolved to 1 mM in annealing buffer containing 10 mM Tris HCl pH 7.5, 1 mM EDTA, and 50 mM NaCl, incubated for 5 minutes at 95° C., and annealed at 45° C. for 45 minutes. […] Biotinylated histone H1 was prepared by treating the protein with Sulfo-NHS-LC-Biotin from Pierce. The biotinylation reaction was conducted by slowly and intermittently adding 3 equivalents of 10 mM Sulfo-NHS-LC-Biotin to 100 μM Histone H1 in phosphate-buffered saline, pH 7.5, at 4° C. with gentle vortexing over 1 minute followed by subsequent 4° C. incubation for 1 hour. Streptavidin coated (FlashPlate Plus) microplates were purchased from Perkin Elmer.
PARP1 assay was conducted in PARP assay buffer containing 50 mM Tris pH 8.0, 1 mM DTT, 4 mM MgCl2. […] Auto reactions utilizing SPA bead-based detection were carried out in 100 μL volumes in white 96 well plates.

Take `Cc1ccc(CCNC(=O)c2cccc(Cc3n[nH]c(=O)c4c3CCCC4)c2)cc1C` [Example 397]: the Ki under setting [1] amounted to 50 nM.
Same read-out and setting: as for `O=C(NCCCN1CCCC1)c1cccc(Cc2n[nH]c(=O)c3c2CCCC3)c1` [Example 315, 3-((4-oxo-3,4,5,6,7,8-hexahydrophthalazin-1-yl)methyl)-N-(3-pyrrolidin-1-ylpropyl)benzamide], the figure is 23 nM.
In the case of `O=C(c1cc(Cc2n[nH]c(=O)c3c2NCCC3)ccc1F)N1CCN(C(=O)N2CCOCC2)CC1` [Example 473, 8-(4-fluoro-3-((4-(morpholin-4-ylcarbonyl)piperazin-1-yl)carbonyl)benzyl)-2,3,4,6-tetrahydropyrido(2,3-d)pyridazin-5(1H)-one], the Ki was 2 nM.
Take `CC(c1ccc(F)c(N2CCCC2=O)c1)c1n[nH]c(=O)c2c1CCCC2` (stereo not drawn) [Example 413, 4-(1-(4-fluoro-3-(2-oxopyrrolidin-1-yl)phenyl)ethyl)-5,6,7,8-tetrahydrophthalazin-1(2H)-one]: under setting [1], the Ki is 18 nM.
Take `O=C(c1ccc2ccccc2n1)N1CCCN(C(=O)c2cc(Cc3n[nH]c(=O)c4c3NCCC4)ccc2F)CC1` [Example 687, 8-(4-fluoro-3-{[4-(quinolin-2-ylcarbonyl)-1,4-diazepan-1-yl]carbonyl}benzyl)-2,3,4,6-tetrahydropyrido[2,3-d]pyridazin-5(1H)-one]: the Ki under setting [1] was found to be 4.2 nM.
Still for that read-out and setting: then `Cc1ccccc1OCC(=O)Nc1cccc(Cc2n[nH]c(=O)c3c2CCCC3)c1` [Example 149, 2-(2-methylphenoxy)-N-(3-((4-oxo-3,4,5,6,7,8-hexahydrophthalazin-1-yl)methyl)phenyl)acetamide], with 22 nM; and `O=C(c1cc(Cc2n[nH]c(=O)c3c2CCCC3)ccc1F)N1CCN(c2ccc(F)cc2)CC1` [Example 528, 4-(4-fluoro-3-{[4-(4-fluorophenyl)piperazin-1-yl]carbonyl}benzyl)-5,6,7,8-tetrahydrophthalazin-1(2H)-one], with 4 nM; and `Cc1ccc(C(=O)Nc2cccc(Cc3n[nH]c(=O)c4c3CCCC4)c2)s1` [Example 199, 5-methyl-N-(3-((4-oxo-3,4,5,6,7,8-hexahydrophthalazin-1-yl)methyl)phenyl)thiophene-2-carboxamide], with 196 nM.
Regarding `O=C(Cc1cccnc1)Nc1cccc(Cc2n[nH]c(=O)c3c2CCCC3)c1` [Example 216, N-(3-((4-oxo-3,4,5,6,7,8-hexahydrophthalazin-1-yl)methyl)phenyl)-2-pyridin-3-ylacetamide], under setting [1], the Ki was determined as 82 nM.
Same read-out and setting: as for `O=C(Nc1cccc(Cc2n[nH]c(=O)c3c2CCCC3)c1)C1CNC1` [Example 113, N-(3-((4-oxo-3,4,5,6,7,8-hexahydrophthalazin-1-yl)methyl)phenyl)azetidine-3-carboxamide], the figure is 6 nM.
As for `COc1ccccc1N1CCN(C(=O)c2cc(Cc3n[nH]c(=O)c4c3NCCC4)ccc2F)CC1` [Example 631, 8-(4-fluoro-3-{[4-(2-methoxyphenyl)piperazin-1-yl]carbonyl}benzyl)-2,3,4,6-tetrahydropyrido[2,3-d]pyridazin-5(1H)-one], the Ki under setting [1] came to 2.8 nM.
Same read-out and setting: then `O=C(NC1CCCNC1)c1cccc(Cc2n[nH]c(=O)c3c2CCCC3)c1` (stereo not drawn) [Example 57, 3-((4-oxo-3,4,5,6,7,8-hexahydrophthalazin-1-yl)methyl)-N-piperidin-3-ylbenzamide], with 60 nM; and `O=C(Nc1ccccc1Nc1ccccc1)c1cccc(Cc2n[nH]c(=O)c3c2CCCC3)c1` [Example 364, N-(2-anilinophenyl)-3-((4-oxo-3,4,5,6,7,8-hexahydrophthalazin-1-yl)methyl)benzamide], with 316 nM.
Same read-out and setting: then `Cc1ccc(OCC(=O)Nc2cccc(CCc3n[nH]c(=O)c4c3CCCC4)c2)cc1` [Example 323, 2-(4-methylphenoxy)-N-(3-(2-(4-oxo-3,4,5,6,7,8-hexahydrophthalazin-1-yl)ethyl)phenyl)acetamide], with 237 nM; and `CSc1cccc(NC(=O)c2cccc(Cc3n[nH]c(=O)c4c3CCCC4)c2)c1` [Example 360, N-(3-(methylthio)phenyl)-3-((4-oxo-3,4,5,6,7,8-hexahydrophthalazin-1-yl)methyl)benzamide], with 94 nM; and `O=C(c1cc(Cc2n[nH]c(=O)c3c2CCCC3)ccc1F)N1CCN(c2cccc(F)c2)CC1` [Example 527, 4-(4-fluoro-3-{[4-(3-fluorophenyl)piperazin-1-yl]carbonyl}benzyl)-5,6,7,8-tetrahydrophthalazin-1(2H)-one], with 3 nM.
The same measure, in the same setting: as for `NC(=O)C1CCCN(C(=O)c2cccc(Cc3n[nH]c(=O)c4c3CCCC4)c2)C1` (stereo not drawn) [Example 429, 1-(3-((4-oxo-3,4,5,6,7,8-hexahydrophthalazin-1-yl)methyl)benzoyl)piperidine-3-carboxamide], the figure is 19 nM; as for `O=c1[nH]nc(Cc2ccc(F)c(N3CCCCS3(=O)=O)c2)c2c1CCCC2` [Example 448], 694 nM; as for `O=C(Nc1nccs1)c1cccc(Cc2n[nH]c(=O)c3c2CCCC3)c1` [Example 319, 3-((4-oxo-3,4,5,6,7,8-hexahydrophthalazin-1-yl)methyl)-N-1,3-thiazol-2-ylbenzamide], 94 nM.
`O=C(NCCc1ccccc1F)c1cccc(Cc2n[nH]c(=O)c3c2CCCC3)c1` [Example 385, N-(2-(2-fluorophenyl)ethyl)-3-((4-oxo-3,4,5,6,7,8-hexahydrophthalazin-1-yl)methyl)benzamide]: the Ki under setting [1] is 42 nM.
For the molecule `O=C(NCCN1CCCC1=O)c1cc(Cc2n[nH]c(=O)c3c2CCCC3)ccc1F` [Example 714, 2-fluoro-5-[(4-oxo-3,4,5,6,7,8-hexahydrophthalazin-1-yl)methyl]-N-[2-(2-oxopyrrolidin-1-yl)ethyl]benzamide], the Ki under setting [1] came out at 0.8 nM.
The same measure, in the same setting: as for `CSc1ccc(Cl)c(C(=O)Nc2cccc(Cc3n[nH]c(=O)c4c3CCCC4)c2)c1` [Example 237, 2-chloro-5-(methylthio)-N-(3-((4-oxo-3,4,5,6,7,8-hexahydrophthalazin-1-yl)methyl)phenyl)benzamide], the figure is 68 nM; as for `COc1ccc(CCNC(=O)c2cccc(Cc3n[nH]c(=O)c4c3CCCC4)c2)c(OC)c1` [Example 403, N-(2-(2,4-dimethoxyphenyl)ethyl)-3-((4-oxo-3,4,5,6,7,8-hexahydrophthalazin-1-yl)methyl)benzamide], 56 nM.
The same measure, in the same setting: then `CN1CCCN(C(=O)c2cc(Cc3n[nH]c(=O)c4c3CCCC4)ccc2F)CC1` [Example 502, 4-{4-fluoro-3-[(4-methyl-1,4-diazepan-1-yl)carbonyl]benzyl}-5,6,7,8-tetrahydrophthalazin-1(2H)-one], with 1.5 nM.
On to `O=C(c1ccc(Cl)nc1)N1CCN(C(=O)c2cc(Cc3n[nH]c(=O)c4c3NCCC4)ccc2F)CC1` [Example 646], for which the Ki under setting [1] is 0.7 nM.
Same read-out and setting: then `CS(=O)(=O)Nc1cccc(-c2cc(CCc3n[nH]c(=O)c4c3CCCC4)ccc2F)c1` [Example 273, N-(2′-fluoro-5′-(2-(4-oxo-3,4,5,6,7,8-hexahydrophthalazin-1-yl)ethyl)-1,1′-biphenyl-3-yl)methanesulfonamide], with 257 nM.
The same measure, in the same setting: then `C[C@H](NC(=O)Nc1cc(Cc2n[nH]c(=O)c3c2CCCC3)ccc1F)C(=O)O` [Example 627, N-[({2-fluoro-5-[(4-oxo-3,4,5,6,7,8-hexahydrophthalazin-1-yl)methyl]phenyl}amino)carbonyl]alanine], with 85 nM.
